Here are results for four compounds from patent US11135234B2, “Effective aminoglycoside antibiotic for multidrug-resistant bacteria” (MICROBIAL CHEMISTRY RESEARCH FOUNDATION, priority 2015, dated 2021).

The subject of test [1] is S. aureus RN4220. Briefly: MIC, agar plate dilution method, S. aureus RN4220. The class given is cell-based, Staphylococcus aureus. The conditions noted are these: for MIC: Staphylococcus aureus, RN4220, S. aureus RN4220, Sensitive bacterium, read-out: minimal inhibitory concentration (MIC); for minimal inhibitory concentration (MIC): S. aureus RN4220, Sensitive bacterium. In a few lines:
(§1)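 Minimal inhibitory concentration (μg/mL) was determined by agar plate dilution following the Japan Society of Chemotherapy method.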

In test [2] the test system is S. aureus RN4220/pMS520. Briefly: MIC, agar plate dilution method, S. aureus RN4220/pMS520. The format is cell-based, Staphylococcus aureus. As to conditions: for MIC: Staphylococcus aureus, MRSA, read-out: minimal inhibitory concentration (MIC), S. aureus RN4220/pMS520, MRSA; for minimal inhibitory concentration (MIC): S. aureus RN4220/pMS520, MRSA. The method in brief: as §1

For test [3], the system named is S. aureus MF490. Briefly: MIC, agar plate dilution method, S. aureus MF490. The format is cell-based, Staphylococcus aureus. As to conditions: for MIC: Staphylococcus aureus, MRSA, read-out: minimal inhibitory concentration (MIC); for minimal inhibitory concentration (MIC): S. aureus MF490, MRSA. In a few lines: as §1
The subject of test [4] is E. faecium ATCC19434. Briefly: MIC, agar plate dilution method, E. faecium ATCC19434. The class given is cell-based, Enterococcus faecium. The conditions noted are these: for MIC: Enterococcus faecium, ATCC19434, E. faecium ATCC19434, read-out: minimal inhibitory concentration (MIC); for minimal inhibitory concentration (MIC): E. faecium ATCC19434. The method in brief:
as §1

In test [5] the test system is E. coli JM109/pMW218. The test is described as follows: MIC, agar plate dilution method, E. coli JM109/pMW218. The class given is cell-based, Escherichia coli. The conditions noted are these: for MIC: Escherichia coli, JM109/PMW218, E. coli JM109/pMW218, Sensitive bacterium, read-out: minimal inhibitory concentration (MIC); for minimal inhibitory concentration (MIC): E. coli JM109/pMW218, Sensitive bacterium. In a few lines: as §1

Test [6] has as its system K. pneumoniae ATCC BAA-1705. Briefly: MIC, agar plate dilution method, K. pneumoniae ATCC BAA-1705. The format is cell-based, Klebsiella pneumoniae. The conditions noted are these: for minimal inhibitory concentration (MIC): K. pneumoniae ATCC BAA-1705, KPC-producing strain. The method in brief:
as §1

Test [7] has as its system K. pneumoniae ATCC BAA-2146. Briefly: MIC, agar plate dilution method, K. pneumoniae ATCC BAA-2146. The format is cell-based, Klebsiella pneumoniae. As to conditions: for MIC: Klebsiella pneumoniae, ATCCBAA2146, K. pneumoniae ATCC BAA-2146, NDM-producing strain, read-out: minimal inhibitory concentration (MIC); for minimal inhibitory concentration (MIC): K. pneumoniae ATCC BAA-2146, NDM-producing strain. The method in brief:
as §1

The subject of test [8] is A. baumannii ATCC BAA-1710. Briefly: MIC, agar plate dilution method, A. baumannii ATCC BAA-1710. The format is cell-based, Acinetobacter baumannii. As to conditions: for MIC: Acinetobacter baumannii, ATCCBAA1710, A. baumannii ATCC BAA-1710, MDRA, read-out: minimal inhibitory concentration (MIC); for minimal inhibitory concentration (MIC): A. baumannii ATCC BAA-1710, MDRA. The method in brief:
as §1

The test system of test [9] is S. marcescens TH-0447. Briefly: MIC, agar plate dilution method, S. marcescens TH-0447. The format is cell-based, Serratia marcescens. The conditions noted are these: for MIC: Serratia marcescens, TH0447, S. marcescens TH-0447, AMK-resistant, read-out: minimal inhibitory concentration (MIC); for minimal inhibitory concentration (MIC): S. marcescens TH-0447, AMK-resistant. In a few lines:
as §1

Test [10] relates to S. marcescens GN6944. Briefly: MIC, agar plate dilution method, S. marcescens GN6944. The class given is cell-based, Serratia marcescens. As to conditions: S. marcescens GN6944, GM-resistant; for MIC: Serratia marcescens, read-out: minimal inhibitory concentration (MIC). The method in brief: as §1
The subject of test [11] is P. aeruginosa PAO1. Briefly: MIC, agar plate dilution method, P. aeruginosa PAO1. The class given is cell-based, Pseudomonas aeruginosa. As to conditions: for minimal inhibitory concentration (MIC): P. aeruginosa PAO1, Sensitive bacterium. In a few lines: as §1
The test system of test [12] is P. aeruginosa PAO1/GN315. The test is described as follows: MIC, agar plate dilution method, P. aeruginosa PAO1/GN315. The class given is cell-based, Pseudomonas aeruginosa. The conditions noted are these: for MIC: Pseudomonas aeruginosa, read-out: minimal inhibitory concentration (MIC), P. aeruginosa PAO1/GN315, AMK-resistant; for minimal inhibitory concentration (MIC): P. aeruginosa PAO1/GN315, AMK-resistant. In a few lines: as §1

Test [13] concerns P. aeruginosa MSC17707. The test is described as follows: MIC, agar plate dilution method, P. aeruginosa MSC17707. The format is cell-based, Pseudomonas aeruginosa. As to conditions: for MIC: Pseudomonas aeruginosa, MSC17707, P. aeruginosa MSC17707, AMK-resistant, read-out: minimal inhibitory concentration (MIC); for minimal inhibitory concentration (MIC): P. aeruginosa MSC17707, AMK-resistant. The method in brief:
as §1

For test [14], the system named is P. aeruginosa MSC01035. The test is described as follows: MIC, agar plate dilution method, P. aeruginosa MSC01035. The class given is cell-based, Pseudomonas aeruginosa. As to conditions: P. aeruginosa MSC01035, ABK-resistant; for MIC: Pseudomonas aeruginosa, read-out: minimal inhibitory concentration (MIC). In a few lines:
as §1

SMILES strings stand for the structures. In brackets after ≈: the same amount, converted by molar mass.

As for `CNC1C(O[C@H]2OC(CO)[C@@H](NC(=O)[C@@H](O)CN)[C@H](O)C2O)O[C@H]2CC(N)[C@@H](O[C@@H]3C(N)C[C@@H](N)C(O)[C@H]3O)OC2C1O` (stereo partly drawn) [Compound V1-h, 4″-N-(L-isoseryl)apramycin], the MIC is 4 µg/mL (≈ 6.38 µM) in test [1]; 4 µg/mL (≈ 6.38 µM) in test [2]; 8 µg/mL (≈ 12.8 µM) in test [3]; 32 µg/mL (≈ 51.1 µM) in [4]; 2 µg/mL (≈ 3.19 µM) in [5]; 2 µg/mL (≈ 3.19 µM) in [6] (Klebsiella pneumoniae, ATCCBAA1705, K. pneumoniae ATCC BAA-1705, KPC-producing strain, read-out: minimal inhibitory concentration (MIC)). The MIC in test [7] worked out at 2 µg/mL (≈ 3.19 µM); in test [8], 8 µg/mL (≈ 12.8 µM); in test [9], 16 µg/mL (≈ 25.5 µM); in test [10], 8 µg/mL (≈ 12.8 µM); in test [11] (Pseudomonas aeruginosa, PAO1, P. aeruginosa PAO1, Sensitive bacterium, read-out: minimal inhibitory concentration (MIC)) it was 16 µg/mL (≈ 25.5 µM); in test [12] it was 8 µg/mL (≈ 12.8 µM). The MIC in test [13] and in test [14] was 4 µg/mL (≈ 6.38 µM) each time.
As to `CNCC(=O)N[C@@H]1C(CO)O[C@H](OC2O[C@H]3CC(N)[C@@H](O[C@@H]4C(N)C[C@@H](N)C(O)[C@H]4O)OC3C(O)C2NC)C(O)[C@H]1O` (stereo partly drawn) [Compound V1-j, 5-epi-4″-N-sarcosylapramycin], the “minimal inhibitory concentration (MIC)” value in [1] stood at 2 µg/mL (≈ 3.28 µM); in [2] it was 2 µg/mL (≈ 3.28 µM); in test [3], 4 µg/mL (≈ 6.55 µM); in test [4], 8 µg/mL (≈ 13.1 µM); in test [5], 1 µg/mL (≈ 1.64 µM); in test [6], 1 µg/mL (≈ 1.64 µM). The “minimal inhibitory concentration (MIC)” value in test [7] stood at 1 µg/mL (≈ 1.64 µM); in [8] it was 8 µg/mL (≈ 13.1 µM); in test [9], 8 µg/mL (≈ 13.1 µM); in [10], 8 µg/mL (≈ 13.1 µM); in test [11], 2 µg/mL (≈ 3.28 µM); in test [12], 4 µg/mL (≈ 6.55 µM). The “minimal inhibitory concentration (MIC)” value worked out at 2 µg/mL (≈ 3.28 µM) in test [13] and 4 µg/mL (≈ 6.55 µM) in test [14].
Consider `CNC1C(O[C@H]2OC(CO)[C@@H](NC(=O)[C@H](C)N)[C@H](O)C2O)O[C@H]2CC(N)[C@@H](O[C@@H]3C(N)C[C@@H](N)C(O)[C@H]3O)OC2C1O` (stereo partly drawn) [Compound V1-k, 4″-N-(L-alanyl)-5-epiapramycin], for which the MIC in test [1] came out at 4 µg/mL (≈ 6.55 µM); in test [2], 4 µg/mL (≈ 6.55 µM); in test [3] it was 8 µg/mL (≈ 13.1 µM); in [4], 16 µg/mL (≈ 26.2 µM); in [5] it was 1 µg/mL (≈ 1.64 µM); in test [7], 1 µg/mL (≈ 1.64 µM). In addition, the MIC in test [8] came out at 8 µg/mL (≈ 13.1 µM); in test [9] it was 16 µg/mL (≈ 26.2 µM); in test [10] it was 8 µg/mL (≈ 13.1 µM); in [12] it was 4 µg/mL (≈ 6.55 µM); in test [13], 4 µg/mL (≈ 6.55 µM); in [14] it was 8 µg/mL (≈ 13.1 µM). In addition, the “minimal inhibitory concentration (MIC)” value in test [6] was found to be 1 µg/mL (≈ 1.64 µM); in test [11], 4 µg/mL (≈ 6.55 µM).
`CNC1C(OC2OC(CO)C(NC(=O)C(N)CO)C(O)C2O)OC2CC(N)C(OC3C(N)CC(N)C(O)C3O)OC2C1O` [Compound V1-l, 5-epi-4″-N-(L-seryl)apramycin]: the “minimal inhibitory concentration (MIC)” value is 4 µg/mL (≈ 6.38 µM) in [1]; 4 µg/mL (≈ 6.38 µM) in test [2]; 8 µg/mL (≈ 12.8 µM) in test [3]; 32 µg/mL (≈ 51.1 µM) in [4]; 1 µg/mL (≈ 1.6 µM) in test [5]; 1 µg/mL (≈ 1.6 µM) in test [6]. Moreover, the “minimal inhibitory concentration (MIC)” value amounted to 1 µg/mL (≈ 1.6 µM) in test [7]; 8 µg/mL (≈ 12.8 µM) in [8]; 8 µg/mL (≈ 12.8 µM) in test [9]; 8 µg/mL (≈ 12.8 µM) in test [10]; 4 µg/mL (≈ 6.38 µM) in test [11]; 4 µg/mL (≈ 6.38 µM) in test [12]. Also, the “minimal inhibitory concentration (MIC)” value was 4 µg/mL (≈ 6.38 µM) in [13] and 8 µg/mL (≈ 12.8 µM) in test [14].
